Laboratory results from patent publication US5384317A, “Bridged biphenyl carbapenem compounds, compositions containing such compounds and methods of use” (Merck & Co., Inc., priority 1993, dated 1995).
Converted amounts (≈) assume the structure as drawn.

How the values were obtained:
MRSA strain MB #5180 [1] = assay: antibiotic disc-diffusion assay of MRSA activity, relative to imipenem; assay type: cell-based, methicillin resistant Staphylococcus aureus; conditions: multiples of the relative potency of imipenem
Procedure: In vitro antibacterial activity determined in accordance with the protocol set forth below is predictive of in vivo activity, when the compounds are administered to a mammal infected with a susceptible bacterial organism.
(§1) Minimum inhibitory concentrations for different compounds may be calculated using the procedures set forth in Lorian, V. (ed.) Antibiotics in Laboratory Medicine (3rd ed.) pages 30-35 if desired. However, by comparing disc sensitivities to a known compound, e.g., imipenem, this calculation is not required to recognize MRSA/MRCNS activity.
Assay Used to Test the Activities of Carbapenems Against Methicillin-Resistant Staphylococci: The assay is an antibiotic disc-diffusion assay modeled after the method described by Bauer and Kirby, et al.1, with the following modifications and clarifications:
Agar: This assay employs an agar depth of 2 mm instead of 4 mm.
Zone Readings: The inner, completely clear zone is measured.
Culture Storage: Frozen vials of strains are stored at -80° C. Working slants are prepared from frozen vials and are used for 1 month to 6 weeks. For methicillin-resistant strains the slant medium is Muleller Hinton Agar; for control strains the slant medium is Brain Heart Infusion Agar. After inoculation from frozen vials, methicillin-resistant slant cultures are incubated at 28° C. until good growth is achieved (approximately 20 hours); slants of control strains are incubated at 37° C. for 16-18 hours.
Preparation of Methicillin-Resistant Inocula for Assay: For methicillin-resistant strains, inoculate 0.5 ml of BHIB heavily (to achieve approximately 1×10^8-109 cfu/ml) from the slant culture by using a sterile cotton tipped applicator. […]
Methicillin-resistant Staphylococci: With a cotton tipped applicator, swab enough growth off the grown plates into 1 ml BHIB to achieve a visual concentration of approximately 1×10^9 cfu/ml. […] Add measured quantities of PBS to dilutions to achieve % T @ 1% above or below the % T measurement for the control cultures. […]

MRSA strain MB #5180 [2] = assay: minimum inhibitory concentration; assay type: cell-based, methicillin resistant Staphylococcus aureus; conditions: Staphylococcus aureus, imipenem (standard)
Procedure: as §1
All compounds below were tested against MRSA strain MB #5180. […]

| MIC (MRSA strain MB #5180 [2]) [mg/L] | Structure (SMILES) | MRSA Activity (MRSA strain MB #5180 [1]) |
| --- | --- | --- |
|  | C[C@@H](O)[C@H]1C(=O)N2C(C(=O)O)=C3c4cccc(-c5ccccc5)c4CC[C@@H]3[C@H]12 | 1.9 |
|  | C[C@@H](O)[C@H]1C(=O)N2C(C(=O)O)=C3c4ccccc4CC[C@@H]3[C@H]12 | 1.3 |
|  | C[C@@H](O)[C@H]1C(=O)N2C(C(=O)O)=C3c4cc(-c5ccccc5)ccc4CC[C@@H]3[C@H]12 | 18.0 |
| 46 (≈ 154 µM) | C[C@@H](O)[C@H]1C(=O)N2C(C(=O)O)=C(SCCN=CN)C[C@H]12 [imipenem] |  |
